Experimental data taken from ChEMBL document CHEMBL1142409, “Synthetic ligands that activate and inhibit a quorum-sensing regulator in Pseudomonas aeruginosa” (Bioorg Med Chem Lett, 2008).

Key:
[1] = target: T1, Transcriptional activator protein LasR (Pseudomonas aeruginosa (strain ATCC 15692 / PAO1 / 1C / PRS 101 / LMG12228)) (UniProt P25084); experiment: Inhibition of Pseudomonas aeruginosa LasR; set-up: concentration or dose not given beside the values; settings: concentration not given here
T1 sequence (whole entry): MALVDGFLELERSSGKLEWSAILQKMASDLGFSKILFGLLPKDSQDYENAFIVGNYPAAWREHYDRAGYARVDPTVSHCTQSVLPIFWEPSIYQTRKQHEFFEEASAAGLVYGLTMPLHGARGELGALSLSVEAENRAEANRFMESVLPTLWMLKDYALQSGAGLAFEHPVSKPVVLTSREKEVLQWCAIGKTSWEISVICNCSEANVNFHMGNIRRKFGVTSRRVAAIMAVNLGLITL

(Pseudomonas aeruginosa) = target: T2, (Pseudomonas aeruginosa) (UniProt Q9RMS5); experiment: Agonist activity at Pseudomonas aeruginosa QscR expressed in Escherichia coli assessed as production of beta-galactosidase at 5 uM relative to dodecanoyl homoserine lactone; assay type: functional
T2 sequence (whole entry): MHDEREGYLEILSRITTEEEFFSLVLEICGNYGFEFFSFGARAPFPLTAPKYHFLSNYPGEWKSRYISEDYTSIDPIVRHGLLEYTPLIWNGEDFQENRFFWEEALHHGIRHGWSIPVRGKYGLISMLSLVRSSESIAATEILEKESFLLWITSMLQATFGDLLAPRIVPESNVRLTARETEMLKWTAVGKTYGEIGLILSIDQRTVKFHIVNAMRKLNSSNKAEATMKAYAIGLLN

[2] = target: T3, PhzR (Pseudomonas aeruginosa) (UniProt Q9RMS5); experiment: Antagonist activity at Pseudomonas aeruginosa QscR expressed in Escherichia coli assessed as inhibition of dodecanoyl homoserine lactone induced production of beta-galactosidase at 5 uM; assay type: functional
T3 sequence (whole entry): T2 sequence (whole entry)

[3] = target: T3, PhzR (Pseudomonas aeruginosa); experiment: Inhibition of binding of Pseudomonas aeruginosa QscR to DNA at 200 uM in presence of 3-oxo-dodecanoyl -L-homoserine lactone by electromobility shift assay
[4] = target: QscR (Pseudomonas aeruginosa); experiment: Antagonist activity at Pseudomonas aeruginosa QscR expressed in Escherichia coli assessed as inhibition of dodecanoyl homoserine lactone induced production of beta-galactosidase

| inhibition [1] [%] | Activity ((Pseudomonas aeruginosa)) [%] | inhibition [2] [%] | SMILES | inhibition [3] [%] | IC50 [4] [nM] |
| --- | --- | --- | --- | --- | --- |
| > 50 | 64 | – | O=C(CCc1ccc(Br)cc1)N[C@H]1CCOC1=O | – | – |
| – | 59 | – | O=C(CC(=O)N[C@@H]1CCOC1=O)Cc1ccccc1 | – | – |
| – | 54 | – | CCCc1ccc(C(=O)CCC(=O)N[C@H]2CCOC2=O)cc1 | – | – |
| 50 | – | 71 | O=C(Cc1cccc([N+](=O)[O-])c1)N[C@H]1CCOC1=O | – | – |
| – | 109 | – | CCCCCCCCCC(=O)CC(=O)N[C@H]1CCOC1=O | – | – |
| – | – | 76 | CCCCCCCCc1ccc(C(=O)N[C@H]2CCOC2=O)cc1 | 100 | – |

Second part, the molecule before the results:

| SMILES | inhibition [1] [%] | Activity ((Pseudomonas aeruginosa)) [%] | inhibition [2] [%] | inhibition [3] [%] | IC50 [4] [nM] |
| --- | --- | --- | --- | --- | --- |
| O=C(Cc1cccc(I)c1)N[C@H]1CCOC1=O | 50 | – | 70 | – | – |
| CCCCCCCC(=O)N[C@H]1CCOC1=O | > 50 | 59 | – | – | – |
| CCCCCC(=O)CC(=O)N[C@H]1CCOC1=O | > 50 | 74 | – | – | – |
| CC(C)(C)OC(=O)Nc1ccc(CC(=O)N[C@H]2CCOC2=O)cc1 | – | 61 | – | – | – |
| O=C(Cc1cccc(Br)c1)N[C@H]1CCOC1=O | 50 | – | 71 | – | – |
| CCOc1ccc(CC(=O)N[C@H]2CCOC2=O)cc1 | – | – | 75 | 82 | 160 |
| O=C(Cc1cccc(Cl)c1)N[C@H]1CCOC1=O | 50 | – | 73 | – | – |
| O=C(Cc1ccc(-c2ccccc2)cc1)N[C@H]1CCOC1=O | 20 | – | 88 | 100 | 30 |
| O=C(N[C@H]1CCOC1=O)c1ccc(Br)cc1 | – | – | 78 | 71 | 180 |
| CCCCCCCCCC(=O)N[C@H]1CCOC1=O | – | 104 | – | – | – |
| CC(C)(C)OC(=O)NCc1ccc(C(=O)N[C@H]2CCOC2=O)cc1 | – | – | 77 | 59 | 200 |
| CCCCCCCCCCCC(=O)CC(=O)N[C@H]1CCOC1=O | – | 78 | – | – | – |
| CCCCCCCCCCCS(=O)(=O)N[C@H]1CCOC1=O | – | 51 | – | – | – |
